The record followed here is patent US10519133B2, “Vinyl compounds as FGFR and VEGFR inhibitors” (MEDSHINE DISCOVERY INC., priority 2015, dated 2019).

For series [1], the system named is SNU-16 cell. Nature of the series: CellTiter-Glo Luminescent Cell Viability Assay. It is filed as cell-based. Conditions: Homo sapiens, 72 h; SNU-16 cells, 3 days; read-out: SNU-16 IC50 (CellTiter-Glo Detection). The method, then: To detect the change of intracellular ATP by CellTiter-Glo® Luminescent Cell Viability Assay, and to evaluate the inhibitory effect of the compounds on in vitro cell SNU-16 using IC50 value of the compounds as an indicator.
Cell line: SNU-16 cell strain d. Diluting SNU-16 with medium, adding the diluted cells to the 384 plate (Greiner. 781090) (50 μL/well, SNU-16 cell 750 cells/well) with multi-channel pipette. Placing the cell plate in a 37° C., 5% CO2 incubator overnight. […]
g. Diluting the compound with DMSO to 10 mM, 3-fold dilution, 11 gradients, duplicate wells. h. Transferring 2.4 ul of the compound to the middle plate added with 47.6 ul of cell culture media at Bravo Automatic Liquid Station. Then transferring 5 ul to the cell culture plate (55 ul) to ensure the final DMSO concentration to be 0.4%. […]
i. Placing the cell culture plate in 5% CO2 incubator at 37° C. to continue cultivating for 3 days. d. Balancing Cell Titer Glo Reagent to room temperature e. Taking 30 ul of Cell Titer Glo Reagent in a 1:2 ratio into each well and gently mixing for 2 minutes f. Placing the cell culture plate in an incubator (23° C.) for 10 minutes, taking out and centrifuging at 1000 rpm for 1 minute g. Reading on Envision (Perkin Elmer) Plate Reader.
H. Analyzing Data: Analyzing the Data Using XLFIT (IDBS) and Calculating IC50 Values for the Compounds.

Series [2] has as its target T1, FGFR1 (Homo sapiens, UniProt P11362).
T1 construct: purchased Invitrogen PV4105
Put plainly: Z′-LYTE Detection Kinase Assay, in vitro enzymatic activity. It is filed as biochemical. Conditions: 0.6 nM FGFR1, 2 uM Tyr4 peptide, 10 uM ATP, 60 min 23° C. On the procedure: To measure enzyme activity by Z′-LYTE™ Detection Kinase Assay, and to evaluate the inhibitory effect of the compounds on FGFR1 using IC50 value of the compounds as an indicator. […]
Reaction Buffer: 50 mM Hepes (pH 7.5), 10 mM MgCl2, 1 mM EGTA, 0.01% Brij-35, 1 mM DTT, 2 mM MnCl2 0.6 nM FGFR1, 2 uM Tyr4 peptide and 10 uM ATP in reaction buffer (50 mM Hepes, pH 7.5, 10 mM MgCl2, 0.01% BRIJ-35, 1 mM EGTA, 4 mM MnCl2, 2 mM DTT). a. Diluting the compounds with DMSO to 10 mM, 3-fold dilution, 11 gradients, duplicate wells. b. Diluting the compound by 1:25 into middle plate at Bravo Automatic Liquid Station, then transferring 2.5 ul to the reaction plate to ensure the final DMSO concentration to be 1%. c. Transferring 5 ul of enzyme/substrate buffer into each well d. Using Multidrop Liquid Workstation to sequentially add ATP solution to each well e. Centrifuging at 1000 rpm for 1 minute f. Placing the reaction plate in an incubator at 23° C. to react for 60 min. a. Preparing a 1:128 mixture of Development Regent B and Development Buffer b. Adding 5 ul to each well and centrifuging at 1000 rpm for 1 minute c. Placing the reaction plate in a thermostat (23° C.) after centrifuging for 90 minutes, removing and reading on Envision (Perkin Elmer) Plate Reader
D. Analyzing Data: Analyzing Data Using XLFIT (IDBS) and Calculating IC50 Values for the Compounds.

In series [3] the test system is FGFR1/2 Highly Expressed Patient-derived Liver Tumor Transplantation Model. Nature of the series: Tumor growth inhibition (TGI) analysis. To be noted: BID. It is filed as in vivo, mice. On the procedure: The evolutionary growth potential of tumors was evaluated by the relationship between tumor volume and time. The long axis (L) and short axis (W) of the subcutaneous tumor were measured twice a week by the caliper and the tumor volume (TV) was calculated by the formula ((L×W^2)/2). TGI was calculated from the difference between the median tumor volume in the solvent group mice and the median tumor volume in the drug group mice, expressed as a percentage counting for the median tumor volume in the solvent control group, calculated by the following formula: % TGI=((median tumor volume(control)−median tumor volume(dosing group))/median tumor volume(control group))×100
The original statistical analysis was done by repeating the analysis of variance, followed by Scheffe psot hoc experimental method for multiple comparisons, with solvent alone (0.5% methylcellulose+0.2% Tween in water) as negative control.

Series [4] in a line: in vivo. Conditions: female, Balb/c nude, mouse, po, 2 mg/kg.
Procedure: (§1) Experimental Procedure: A clear solution of the test compound in 20% DMSO/60% PEG400/20% water at 0.4 mg/ml was administered by intragastric administration to female Balb/c nude mice (fasted overnight, 7-9 weeks of age) with a dose of 2 mg/kg. About 30 μL of blood was collected from the jugular vein or caudal vein at 0.25, 0.5, 1.0, 2.0, 4.0, 8.0 and 24 h after administration in both groups of animals, placed in anticoagulation tube with EDTA-K2 and the plasma was centrifuged. Plasma concentrations were determined by LC-MS/MS and related pharmacokinetic parameters were calculated using the non-compartmental model linear logarithmic trapezoidal method using WinNonlin™ Version 6.3 (Pharsight, Mountain View, Calif.) pharmacokinetic software.
The conditions of series [5]: female, Balb/c nude, mouse, in vivo, 2 mg/kg.
Procedure: as §1

T1 sequence (P11362 22-822): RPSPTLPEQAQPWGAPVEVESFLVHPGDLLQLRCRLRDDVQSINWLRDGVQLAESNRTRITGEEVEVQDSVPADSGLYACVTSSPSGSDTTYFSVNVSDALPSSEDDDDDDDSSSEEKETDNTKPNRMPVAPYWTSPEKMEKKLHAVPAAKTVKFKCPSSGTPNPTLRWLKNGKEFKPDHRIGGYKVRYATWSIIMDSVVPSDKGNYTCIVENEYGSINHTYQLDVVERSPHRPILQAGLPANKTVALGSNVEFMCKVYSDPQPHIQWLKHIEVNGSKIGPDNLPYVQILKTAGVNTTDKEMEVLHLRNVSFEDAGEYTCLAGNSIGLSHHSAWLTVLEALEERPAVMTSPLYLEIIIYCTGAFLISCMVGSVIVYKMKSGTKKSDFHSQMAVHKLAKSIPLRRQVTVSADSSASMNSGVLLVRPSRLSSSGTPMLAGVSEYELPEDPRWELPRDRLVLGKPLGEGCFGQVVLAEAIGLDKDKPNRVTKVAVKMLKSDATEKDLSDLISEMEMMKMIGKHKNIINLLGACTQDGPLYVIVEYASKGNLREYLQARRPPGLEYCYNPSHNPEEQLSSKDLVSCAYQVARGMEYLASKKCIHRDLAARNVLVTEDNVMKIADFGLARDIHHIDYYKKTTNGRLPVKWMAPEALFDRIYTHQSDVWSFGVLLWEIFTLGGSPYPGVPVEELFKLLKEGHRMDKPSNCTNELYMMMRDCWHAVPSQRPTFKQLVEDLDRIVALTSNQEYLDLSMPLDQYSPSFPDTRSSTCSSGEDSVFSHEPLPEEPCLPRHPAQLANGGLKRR

With `CC(Oc1ccc2[nH]nc(/C=C(\F)c3ccc(CN4CCOCC4)nc3)c2c1)c1c(Cl)cncc1Cl` (stereo not drawn) [Example 16], the IC50 in series [1] was at most 10 nM; in series [2] it was 10 to 50 nM. The “TGI % (last administration)” value in series [3] (15 mg/kg) worked out at 84.5%.
In turn, `C[C@@H](Oc1ccc2[nH]nc(/C=C(\F)c3ccc(CNC4CCOCC4)nc3)c2c1)c1c(Cl)cncc1Cl` [Example 18] showed an IC50 in series [2] of at most 10 nM. Moreover, the “TGI % (last administration)” value in series [3] (5 mg/kg) stood at 85%.
For the molecule `C[C@@H](Oc1ccc2[nH]nc(/C=C(\F)c3ccc(CN4CCN(C)CC4)nc3)c2c1)c1c(Cl)cncc1Cl` [Example 33], the IC50 in series [1] and in series [2] was at most 10 nM each time.
Turning to `COC1CCN(Cc2ccc(/C(F)=C/c3n[nH]c4ccc(O[C@H](C)c5c(Cl)cncc5Cl)cc34)cn2)C1` (stereo partly drawn) [Example 34], the IC50 in series [1] and in series [2] was at most 10 nM in each case.
Regarding `C[C@@H](Oc1ccc2[nH]nc(/C=C(\F)c3ccc(OCC4CCOCC4)nc3)c2c1)c1c(Cl)cncc1Cl` [Example 41], the results for the IC50 in series [1] and in series [2] were at most 10 nM and 50 to 1000 nM, respectively.
The corresponding values for `C[C@@H](Oc1ccc2[nH]nc(/C=C(\F)c3ccc(NC4CCOCC4)nc3)c2c1)c1c(Cl)cncc1Cl` [Example 45] are at most 10 nM and 50 to 1000 nM.
The corresponding values for `C[C@@H](Oc1ccc2[nH]nc(/C=C(\F)c3ccc(NC4CCNCC4)nc3)c2c1)c1c(Cl)cncc1Cl` [Example 47] are at most 10 nM and at most 10 nM.
The corresponding values for `CC(Oc1ccc2[nH]nc(/C=C/c3cnc(CN4CCOCC4)cn3)c2c1)c1c(Cl)cncc1Cl` (stereo not drawn) [Example 53] are at most 10 nM and 10 to 50 nM.
`CC(Oc1ccc2[nH]nc(/C=C/c3ccc(CN4CCOCC4)nn3)c2c1)c1c(Cl)cncc1Cl` (stereo not drawn) [Example 54]: the IC50 in series [2] is at most 10 nM. Further, the “TGI % (last administration)” value in series [3] (10 mg/kg) was 85.4%.
For the molecule `CC(Oc1ccc2[nH]nc(/C=C/c3cc(F)c(CN4CCOCC4)cc3C#N)c2c1)c1c(Cl)cncc1Cl` (stereo not drawn) [Example 62], the IC50 was at most 10 nM in series [1] and 50 to 1000 nM in series [2].
Turning to `CC(Oc1ccc2[nH]nc(/C=C/c3ccc(CN4CCOCC4)cc3)c2c1)c1c(Cl)cncc1Cl` (stereo not drawn) [Example 63], in series [2], the IC50 fell in the range of 10 to 50 nM. In addition, the “TGI % (last administration)” value in series [3] (15 mg/kg) is given as 86%.
For the molecule `CC(Oc1ccc2[nH]nc(-c3ccc(NC(=O)CN4CCOCC4)nc3)c2c1)c1c(Cl)cncc1Cl` (stereo not drawn) [Example 70], the IC50 in series [1] is at most 10 nM; in series [2], 50 to 1000 nM.
The corresponding values for `CC(Oc1ccc2[nH]nc(/C=C/c3ccc(CNC4CCN(C)CC4)cc3)c2c1)c1c(Cl)cncc1Cl` (stereo not drawn) [Example 76] are at most 10 nM and at most 10 nM.
On to `CC(Oc1ccc2[nH]nc(/C=C/c3ccc(CN4CCOCC4)cc3)c2c1)c1c(Cl)cncc1Cl` (stereo not drawn) [WX_063], for which, in series [4], the AUC(0-t) amounted to 0.221 ± 0.0713 µM·h and the Cmax was found to be 214 ± 39.7 nM. Further, the peak time in series [5] came to 0.25 h.
